Experimental data taken from patent US8637574B2, “Salts of 3-pentylphenylacetic acid and pharmaceutical uses thereof” (priority 2009, dated 2014).
Where a name gives a salt, the structure may show the parent alone.

How the values were obtained:
[1] = tested on: doxorubicin-induced nephrotoxicity model; test: Doxorubicin-induced nephrotoxicity model (serum albumin, serum creatinine, kidney histology); type: in vivo, mice
Experimental: C57BI/6 mice (6-10 week-old) were treated with Compound I prophylacticly from day −3 to day 10 or treated therapeutically from day 1 to 10. Nephrotoxicity was induced by an intravenous injection of 10 mg/kg of doxorubicin at day 0. Serum albumin and creatinine were monitored at days 4, 7, 9 and 11.

[2] = tested on: RAW264.7 (macrophage-like) cells; test: Nitric oxide production in LPS/interferon-stimulated RAW264.7 cells (Griess reagent); type: cell-based; conditions: 1 μg/ml LPS and 0.5 ng/ml interferon, 16 hours, dose dependent
Experimental: The effect of Compound I on NO production was undertaken in RAW264.7 (macrophage-like) cells. RAW264.7 cells were cultured with 1 μg/ml of LPS and 0.5 ng/ml of interferon in presence or absence of the compound for 16 hours in a humidified atmosphere of 95% air-5% carbon dioxide at 37° C. Nitric oxide measurement in the culture medium was measured using the Griess reagent after an incubation of 30 minutes at room temperature. The absorbance at 548 nm was read and compared with standard solutions of NaNO2. Cell viability was assessed with the addition of 50 μl of […]. After an incubation of 4 hours, the medium was removed and 150 μl of DMSO was added to dissolve the crystals. The optical density of each sample was read at 570 nm against a blank prepared from cell-free wells.

[3] = tested on: ⅚ nephrectomized (Nx) rat model; test: Kidney protection in ⅚ nephrectomized rat model (GFR, creatinine clearance); type: in vivo; conditions: Nx rats over treatment period; 50% deterioration in Nx control rats (FIG. 5)
Excerpt: Male 6 week-old Wistar rats were subjected to ⅚ nephrectomy or sham operations. Under fluothane anesthesia, renal ablation was achieved by removing two-thirds of the left kidney followed by a right unilateral nephrectomy 7 days later. Sham rats underwent exposition of the kidneys and removal of the perirenal fat. Twenty-one days after the first operation, rats were randomized in the study by their reduced glomerular filtration rate (GFR) of creatinine indicating a dysfunction of the kidney. Animals that underwent the sham operation were given vehicle (saline) and were used as controls. Nx animals were divided in groups receiving the vehicle or Compound I. Saline or Compound I was given by gastric gavage once daily up to the sacrifice. GFR was measured every three weeks in order to assess the severity of this end-stage renal disease model. Rats were sacrificed at day 190.

[4] = Physical properties of the salt and the free acid (hygroscopicity, water solubility); type: physicochemical
PGE2 = test: LPS-induced inflammation in the rat air-pouch model (PGE2 in pouch exudates by ELISA); type: in vivo, rats; conditions: two hours after administration of LPS (FIG. 3)
Excerpt: LPS-induced inflammation in the rat air-pouch model is believed to mimic the pathological process occurring in joint diseases such as arthritis. This is because the connective tissues formed along the air pouch are similar to those found in chronic joint diseases. LPS-induced inflammation and chronic joint diseases share other features, including markedly elevated PGE2, neutrophil infiltration, cytokine formation, and tissue damage. An air cavity was produced at day −6 by subcutaneous injection of 20 ml of sterile air into the intrascapular area of the back of male Lewis rats (175-200 g). An additional 10 ml of air was injected into the cavity at day −3 to keep the space open. At day 0, Compound I was administered intravenously and one hour later lipopolysaccharide (LPS: 2.5 ml, 2 μg/ml in PBS) was injected into the pouch to produce an inflammatory reaction. Two hours after treatment with LPS, animals were euthanized by CO2 asphyxiation and 5 ml of PBS/heparin (10 U/ml)/indomethacin (36 μg/ml) was injected into the pouch. The pouch fluid was collected and PGE2 was determined in the pouch exudates by ELISA.

CCCCCc1cccc(CC(=O)O)c1 [Compound I, sodium salt of 3-pentylphenylacetic acid]
kidney lesions at the tubular level induced by doxorubicin (histological score) ([1]; prophylactic (pre-doxorubicin) and therapeutic (post-doxorubicin) treatments, mice (FIG. 9)): reduce the kidney lesions
protection of kidney against doxorubicin toxicity (histological micrographs) ([1]; prophylactic or therapeutic treatment, mice (FIG. 10)): protects kidney against doxorubicin toxicity
decrease of serum albumin induced by doxorubicin ([1]; prophylactic treatment day −3 to day 10, oral, mice (FIG. 7)): inhibits
increase of serum creatinine induced by doxorubicin ([1]; prophylactic treatment day −3 to day 10, oral, mice (FIG. 8)): inhibits
increase of serum creatinine level induced by doxorubicin ([1]; therapeutic treatment day 1 to 10, oral, mice (FIG. 8)): inhibits
inhibition of NO production [2]: about 50%
improvement of GFR compared to the initial GFR (before treatment) at day 21 [3]: 50%
hygroscopicity [4]: not hygroscopic
water solubility [4]: very water soluble

COc1ccc2c(c1)c(CC(=O)O)c(C)n2C(=O)c1ccc(Cl)cc1 [indomethacin]
inhibition of PGE2 (PGE2): inhibition

COc1cccc2c1C(=O)c1c(O)c3c(c(O)c1C2=O)C[C@@](O)(C(=O)CO)C[C@@H]3O[C@H]1C[C@H](N)[C@H](O)[C@H](C)O1 [Doxorubicin, doxorubicin, reference compound]
kidney lesions induced by doxorubicin alone (histological score) ([1]; doxorubicin 10 mg/kg i.v. day 0, mice, day 7 and 11): significant kidney lesions
